Some test systems named below: HCT-15; SW-620; M14; RXF 393; MDA-MB-231; OVCAR-3; UACC-257; IGROV-1; SK-MEL-28; UACC-62; 786-0; SK-MEL-2; SNB-75; RPMI-8226; LOX IMVI; NCI-H23; A549; SF-268; DU-145; NCI-H522.
Common to all, as to assay: DTP human tumour cell line panel, 48 h

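Grown in 96-well plates, cells were treated for 48 hours with each compound at five concentrations. Insufficient inhibition: endpoint recorded as highest concentration tested. Abbreviation: GI50, concentration required for 50% inhibition of growth.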 Activity calls are given as the source filed them. Rule as the data show it: active = GI50 up to about 1.1 µM and inactive = higher.

On to `CC(=O)OCC1OC(N2C(=O)/C(=C\c3ccc(Cl)cc3)C(N)=Nc3ccccc32)C(OC(C)=O)C(OC(C)=O)C1OC(C)=O` (configuration not stated), for which the GI50 in the assay on HCT-15 was 23 µM; with SW-620, 23.2 µM (inactive); with M14 it was 20.2 µM (inactive); in the assay on RXF 393 it was 4.34 µM (inactive); in the assay with MDA-MB-231 it was 19.3 µM (inactive); in the assay on OVCAR-3 it was 15.4 µM (inactive). Moreover, the GI50 with UACC-257 was 23.4 µM (inactive); in the assay with IGROV-1, 19.6 µM (inactive); with SK-MEL-28, 26.1 µM (inactive); with UACC-62 it was 29.4 µM (inactive); in the assay on 786-0, 17.7 µM (inactive); in the assay with SK-MEL-2 it was 25.4 µM (inactive). The GI50 in the assay on SNB-75 was 19.1 µM (inactive); in the assay with RPMI-8226, 2.24 µM (inactive); in the assay with LOX IMVI, 17.1 µM (inactive); in the assay with NCI-H23, 25.9 µM (inactive); in the assay with A549, 27.8 µM (inactive); with SF-268, 18.2 µM (inactive). Besides, in the assay with DU-145, the GI50 is 28.8 µM (inactive).

Regarding `CCC(C)(O)c1cnc(CC(C)C)c(=O)n1O` (configuration not stated), the GI50 is 38 µM with HCT-15; 37.1 µM (inactive) in the assay with SW-620; > 100 µM (inactive) with RXF 393; 43.3 µM (inactive) with MDA-MB-231; 33.8 µM (inactive) in the assay with OVCAR-3; 97.3 µM (inactive) in the assay on UACC-257. Besides, the GI50 was 63 µM (inactive) in the assay on IGROV-1; 63.5 µM (inactive) in the assay with SK-MEL-28; 68.2 µM (inactive) in the assay on UACC-62; 57.7 µM (inactive) in the assay on 786-0; 57.3 µM (inactive) in the assay with SK-MEL-2; 31.6 µM (inactive) in the assay with SNB-75. Moreover, the GI50 is 11.5 µM (inactive) in the assay on RPMI-8226; 33.8 µM (inactive) in the assay with LOX IMVI; 78.2 µM (inactive) with NCI-H23; 43.9 µM (inactive) in the assay with A549; 36.8 µM (inactive) in the assay on SF-268; > 100 µM (inactive) in the assay with DU-145.

Consider `NC1=C(N2CCCCC2)C(=O)NC2=N/C(=C\c3ccco3)C(=O)N21`, for which the GI50 is over 100 µM with HCT-15; > 100 µM (inactive) in the assay on SW-620; > 100 µM (inactive) in the assay with M14; > 100 µM (inactive) in the assay on RXF 393; > 100 µM (inactive) in the assay on MDA-MB-231; > 100 µM (inactive) in the assay with UACC-257. The GI50 with IGROV-1, in the assay with SK-MEL-28, in the assay on 786-0, with SNB-75, in the assay on NCI-H522 and in the assay on RPMI-8226 was > 100 µM (inactive) each time. The GI50 in the assay on LOX IMVI, with NCI-H23, in the assay on A549, in the assay on SF-268 and in the assay with DU-145 was > 100 µM (inactive) in each case.

Take `CC(C)(C)C(=O)C(C(=O)c1ccccc1)C(=O)C(C)(C)C`: the GI50 with HCT-15 is over 100 µM; with SW-620, > 100 µM (inactive); in the assay on M14, > 100 µM (inactive); in the assay with RXF 393, > 100 µM (inactive); in the assay on MDA-MB-231, 98.2 µM (inactive); in the assay on OVCAR-3, > 100 µM (inactive). Also, the GI50 with UACC-257, in the assay on IGROV-1, in the assay on SK-MEL-28, with 786-0, in the assay with SK-MEL-2 and with SNB-75 was > 100 µM (inactive) in each case. In addition, the GI50 with NCI-H522, with RPMI-8226, in the assay on LOX IMVI, with NCI-H23, with A549 and in the assay with SF-268 was > 100 µM (inactive) throughout. In addition, the GI50 in the assay with DU-145 is > 100 µM (inactive).

On to `COCCN1C(=O)C2c3[nH]c4ccccc4c3C3CCC(C(C)(C)C)CC3C2C1=O` (configuration not stated), for which the 50% growth inhibitory concentration (GI50) is 16.9 µM in the assay with HCT-15; 17.3 µM (inactive) with SW-620; 18.5 µM (inactive) in the assay with M14; 20.4 µM (inactive) in the assay with RXF 393; 17.3 µM (inactive) in the assay on MDA-MB-231; 17.5 µM (inactive) with OVCAR-3. The GI50 in the assay with UACC-257 was 16.7 µM (inactive); in the assay with IGROV-1 it was 23.2 µM (inactive); with SK-MEL-28 it was 17.5 µM (inactive); with UACC-62, > 10 µM (inactive); in the assay on 786-0, 17.2 µM (inactive); in the assay with SNB-75, 17.5 µM (inactive). Moreover, the GI50 in the assay with NCI-H522 was 18 µM (inactive); with RPMI-8226, 15.2 µM (inactive); in the assay on NCI-H23, 22.6 µM (inactive); with A549 it was 19.1 µM (inactive); with SF-268 it was 19.2 µM (inactive); in the assay with DU-145, 19.1 µM (inactive).

On to `On1c(-c2ccccc2)nc2ccccc2c1=S`, for which the 50% growth inhibitory concentration (GI50) with HCT-15 is 1.36 µM; in the assay with SW-620, 6.82 µM (inactive); in the assay with M14, 2.91 µM (inactive); in the assay on RXF 393, 25.5 µM (inactive); in the assay with MDA-MB-231, 70.3 µM (inactive); in the assay on OVCAR-3 it was 4.39 µM (inactive). In addition, the GI50 is 54.3 µM (inactive) in the assay on UACC-257; 0.493 µM (active) with IGROV-1; 7.41 µM (inactive) in the assay on SK-MEL-28; 3.7 µM (inactive) with UACC-62; 3.95 µM (inactive) in the assay with 786-0; 8.75 µM (inactive) with SK-MEL-2. Besides, the GI50 in the assay with SNB-75 was 19.3 µM (inactive); in the assay with RPMI-8226, 3.27 µM (inactive); in the assay with LOX IMVI it was 0.632 µM (active); in the assay on NCI-H23 it was 3.43 µM (inactive); in the assay on A549, 2.84 µM (inactive); with SF-268, 3.47 µM (inactive). Further, the GI50 in the assay on DU-145 is 7.64 µM (inactive).

`O=C(O)c1[nH]c2c([N+](=O)[O-])cc([N+](=O)[O-])cc2c1C(=O)O`: the GI50 with HCT-15 was over 100 µM; in the assay on SW-620 it was > 100 µM (inactive); with M14, 56.1 µM (inactive); in the assay with RXF 393, > 100 µM (inactive); in the assay on MDA-MB-231, > 100 µM (inactive); in the assay on OVCAR-3, > 100 µM (inactive). Moreover, the GI50 with UACC-257, in the assay with IGROV-1, in the assay with SK-MEL-28, in the assay on UACC-62, in the assay with 786-0 and in the assay on SK-MEL-2 was > 100 µM (inactive) in each case. Further, the GI50 was > 100 µM (inactive) in the assay on SNB-75; 78.9 µM (inactive) in the assay on NCI-H522; > 100 µM (inactive) in the assay with LOX IMVI; > 100 µM (inactive) in the assay on NCI-H23; > 100 µM (inactive) in the assay with A549; > 100 µM (inactive) in the assay with SF-268. Besides, the GI50 in the assay on DU-145 was > 100 µM (inactive).

Consider `CS(=O)(=O)c1ccc(/C=N/NC(N)=S)cc1`, for which the GI50 in the assay on HCT-15 is over 100 µM; in the assay on SW-620, > 100 µM (inactive); in the assay with M14, > 100 µM (inactive); in the assay on RXF 393 it was > 100 µM (inactive); in the assay with MDA-MB-231, > 100 µM (inactive); with OVCAR-3, > 100 µM (inactive). Further, the GI50 with UACC-257, in the assay with IGROV-1, in the assay with SK-MEL-28, in the assay with UACC-62, in the assay on 786-0 and in the assay with SNB-75 was > 100 µM (inactive) in each case. Also, the GI50 in the assay with NCI-H522, with RPMI-8226, with LOX IMVI, in the assay on NCI-H23, with A549 and in the assay on SF-268 was > 100 µM (inactive) each time. Further, the GI50 in the assay with DU-145 is > 100 µM (inactive).

`CCNC(=O)C1CCCN1C(=O)C(CCCN=C(N)N)NC(=O)C(CC(C)C)NC(=O)C(Cc1c[nH]c2ccccc12)NC(=O)C(Cc1ccc(O)cc1)NC(=O)C(CO)NC(=O)C(Cc1c[nH]c2ccccc12)NC(=O)C(Cc1c[nH]cn1)NC(=O)C1CCC(=O)N1` (configuration not stated): the GI50 with HCT-15 was over 100 µM; in the assay with SW-620 it was > 100 µM (inactive); in the assay with M14 it was > 100 µM (inactive); with RXF 393 it was > 100 µM (inactive); with MDA-MB-231, > 100 µM (inactive); with OVCAR-3, > 100 µM (inactive). The GI50 with UACC-257, in the assay with IGROV-1, with UACC-62, in the assay on 786-0, with SK-MEL-2 and in the assay on SNB-75 was > 100 µM (inactive) each time. Besides, the GI50 in the assay on NCI-H522, with RPMI-8226, in the assay on NCI-H23, in the assay on A549, with SF-268 and in the assay on DU-145 was > 100 µM (inactive) each time.

For the compound `OCC1OC(NC(=S)NCSCCC(F)(F)C(F)(F)C(F)(F)C(F)(F)C(F)(F)C(F)(F)F)C(O)C(O)C1O` (configuration not stated), the GI50 in the assay on HCT-15 was 72.6 µM; in the assay on SW-620, 39.4 µM (inactive); with M14, 17 µM (inactive); in the assay on RXF 393, 35.2 µM (inactive); in the assay with MDA-MB-231 it was > 100 µM (inactive); in the assay with OVCAR-3, 86.9 µM (inactive). Further, the GI50 in the assay on UACC-257 was 46.6 µM (inactive); in the assay on IGROV-1, 31.8 µM (inactive); in the assay on SK-MEL-28 it was 5.77 µM (inactive); with UACC-62, 32.7 µM (inactive); in the assay with 786-0, 45.8 µM (inactive); in the assay on SK-MEL-2, 51.6 µM (inactive). Moreover, the GI50 with SNB-75 was 96.4 µM (inactive); with RPMI-8226, 63.8 µM (inactive); with LOX IMVI it was 34.4 µM (inactive); in the assay on NCI-H23 it was 39.5 µM (inactive); in the assay on A549, 58.1 µM (inactive); in the assay on SF-268, 15.2 µM (inactive). The GI50 with DU-145 was 81.8 µM (inactive).

With `CN(CO)c1nc(N(C)CO)nc(N(C)CO)n1` [TRIMELAMOL], the GI50 with HCT-15 was 9.89 µM; with SW-620, 3.51 µM (inactive); in the assay with M14 it was 21.8 µM (inactive); in the assay on RXF 393, 11.6 µM (inactive); with MDA-MB-231, 21.5 µM (inactive); in the assay with OVCAR-3, 27.7 µM (inactive). Moreover, the GI50 in the assay with IGROV-1 was 23.7 µM (inactive); in the assay on SK-MEL-28, 13.6 µM (inactive); in the assay with UACC-62, 13.3 µM (inactive); in the assay on 786-0 it was 24.2 µM (inactive); in the assay on SNB-75 it was 18.5 µM (inactive); in the assay on NCI-H522 it was 20.9 µM (inactive). The GI50 was 3.98 µM (inactive) in the assay on RPMI-8226; 9.86 µM (inactive) in the assay on LOX IMVI; 19.3 µM (inactive) in the assay on NCI-H23; 12.8 µM (inactive) with A549; 25.7 µM (inactive) with DU-145.

For the origin of these results see ChEMBL document CHEMBL1201862, “PubChem BioAssay data set” (2004).
